The values that follow come from the OligoGym collection.

Bases are written 5' to 3'; sugars and linkages follow in the same order, as letters with counts (s phosphorothioate, o phosphodiester; PS: all linkages phosphorothioate). The collection does not say whether C is 5-methylated. l = locked nucleic acid (LNA); d = 2'-deoxy (DNA)

The series concerns the target Tau. Description: rat primary cortical neurons, FLIPR, 25 uM ASO.
Take CCCAATCTTCGACTGG (sugars l3 d10 l3, PS): the calcium oscillation score was 21.7 % of control. As to “TATGTTTTTTAACTCCC (sugars l4 d11 l2, PS)”, the calcium oscillation score is 94.3 % of control.

In the case of “CACCCACTTTCCTAATTCCC (sugars l1 d17 l2, PS)”, the calcium oscillation score is 55.1 % of control.

Take TCCTTCTTCATTCTTG (sugars l3 d10 l3, PS): the calcium oscillation score is 23.8 % of control. In the case of “TATTAATTATCTGCACC (sugars l3 d10 l4, PS)”, the calcium oscillation score was 50.9 % of control.

For “TCCTGGCCATCTTATGCTGA (sugars l3 d14 l3, PS)”, the calcium oscillation score is 31.2 % of control. The same measure for “CTACACCACTGTTCCATA (sugars l1 d15 l2, PS)”: 62 % of control; for “CCAGATTCCCCAACTCAC (sugars l3 d13 l2, PS)”: 89 % of control; for “TATTATCCTTTGAGCCACAC (sugars l3 d14 l3, PS)”: 77.4 % of control. The same measure for “AACCACTCTTATTCTTTAAA (sugars l4 d12 l4, PS)”: 91.3 % of control; for “TACACTGTCCTTTAAAC (sugars l4 d11 l2, PS)”: 66.1 % of control; for “ATTTCCAAATTCACTTTTAC (sugars l4 d10 l2 d2 l2, PS)”: 137 % of control. For CCCTAAAGTCCCAGGT (sugars l3 d10 l3, PS) the value was 76.2 % of control.

In the case of AATCCTGTGCTTCA (sugars l3 d8 l3, PS), the calcium oscillation score is 9.58 % of control. The same measure for CATTGGAACTGAGCAC (sugars l3 d10 l3, PS): 8.33 % of control; for CAGCTAGCGTGGCGAG (sugars l3 d10 l3, PS): 0 % of control. For “CATAATCCTACCACCAG (sugars l2 d12 l3, PS)” the value was 61.3 % of control; for “CCCTCCCTTTAATGCCAGGC (sugars l3 d14 l3, PS)”, 6.04 % of control; for “TCCACAAACCAACTCAAC (sugars l4 d12 l2, PS)”, 95.9 % of control. With CAACATTTGCACTCTC (sugars l4 d8 l4, PS), the calcium oscillation score is 67.7 % of control.

In the case of “TTAACCAGCTAGTGGTGCCA (sugars l3 d14 l3, PS)”, the calcium oscillation score was 0 % of control.

As for “TCCCAGCGTGATCTTCCATC (sugars lldllddddddddddlldll, PS)”, the calcium oscillation score is 106 % of control. For “CACTCTCTGCATATATA (sugars l4 d10 l3, PS)” the value was 48 % of control; for “CCATTTTCCATATAATTTT (sugars l3 d12 l4, PS)”, 79.3 % of control. For AGGTCAACTGGTTTGT (sugars l3 d10 l3, PS) the value was 0 % of control; for “TCCTCCATTGTAACTAC (sugars l2 d11 l4, PS)”, 63.9 % of control.

Turning to “CTTTATTTCCAAATTCACTT (sugars l4 d13 l3, PS)”, the calcium oscillation score is 121 % of control.

Turning to AATAAGAAAGGAACGC (sugars l4 d8 l4, PS), the calcium oscillation score was 5.95 % of control. As to “CTTTATTTCCAAATTCACT (sugars l5 d9 l5, PS)”, the calcium oscillation score was 127 % of control. Regarding “ATTATTTACACTGTCCT (sugars l2 d11 l4, PS)”, the calcium oscillation score is 78.1 % of control.

Consider TTGGCTTTGGCGTTCT (sugars l3 d10 l3, PS), for which the calcium oscillation score was 74.5 % of control. The same measure for “CTTACACACCACACACACT (sugars l1 d16 l2, PS)”: 100 % of control.

Turning to CTGCCGGTGGAGGAGA (sugars l3 d10 l3, PS), the calcium oscillation score was 0 % of control. On to AATCCTGTGCTTCAGG (sugars l3 d10 l3, PS), for which the calcium oscillation score was 73 % of control. For ATCACTTCGAACTCCT (sugars l3 d10 l3, PS) the value was 159 % of control; for “CCATTCAGATCTATCCA (sugars l3 d12 l2, PS)”, 94.3 % of control. For “TATCCTTTGAGCCACACTTG (sugars l3 d14 l3, PS)” the value was 11.7 % of control. Consider CAGCTATACTATTTCA (sugars l4 d10 l2, PS), for which the calcium oscillation score was 60.2 % of control. In the case of “TTCCATCACTTCGAACTCCT (sugars l3 d14 l3, PS)”, the calcium oscillation score is 13.6 % of control. For “ATTTAGTTTTCCCACCCA (sugars l1 d15 l2, PS)” the value was 48 % of control; for TCTTGGCGGAAGACGG (sugars l3 d10 l3, PS), 100 % of control; for “CCTGTCTCAAACACCTA (sugars l2 d12 l3, PS)”, 60.6 % of control. For the sequence CGTTCTCGCGGAAGGT (sugars l3 d10 l3, PS), the calcium oscillation score is 13 % of control.

On to “TACTTTATTCCCTTAACAAT (sugars l2 d14 l4, PS)”, for which the calcium oscillation score was 91.3 % of control. Consider CTTATTAATTATCTGC (sugars l4 d8 l4, PS), for which the calcium oscillation score is 33.9 % of control. “CCAGACCATCAATTTCC (sugars l2 d13 l2, PS)”: the calcium oscillation score is 83.3 % of control. On to “TCACTCATGCCTTAATC (sugars l4 d11 l2, PS)”, for which the calcium oscillation score is 62 % of control.

Consider “CCACCTCATTAAGATCA (sugars l3 d12 l2, PS)”, for which the calcium oscillation score was 56 % of control.

For the sequence TATCATATCCTAAGCA (sugars l3 d9 l4, PS), the calcium oscillation score was 76 % of control.

With “TCTTGTTCTAACCCCACA (sugars l2 d14 l2, PS)”, the calcium oscillation score was 68.1 % of control. For GGCGGTGACTGCGAG (sugars l3 d9 l3, PS) the value was 51.5 % of control; for CCTTACCACTTTCAGG (sugars l3 d10 l3, PS), 111 % of control; for CCTAATCCTGTGCTT (sugars l3 d9 l3, PS), 58.2 % of control.

As for “CGCCCCACTTTTAATTA (sugars l2 d12 l3, PS)”, the calcium oscillation score is 77.2 % of control. The same measure for “TTCCTGGCCATCTTATGCTG (sugars l3 d14 l3, PS)”: 22 % of control; for “CTAATTACATTTTTTCTT (sugars l4 d10 l4, PS)”: 63.9 % of control; for AATAAGAAAGGAACGC (sugars l5 d7 l4, PS): 121 % of control. For “CTTTTAATTAAATTTCTCCC (sugars l2 d15 l3, PS)” the value was 87.6 % of control. For “ATTCCCAAATTCCTCATAAT (sugars l4 d14 l2, PS)” the value was 58.6 % of control; for “CTAATATCCTTGCTATC (sugars l3 d10 l4, PS)”, 55.7 % of control. Consider ACCCAATCTTCGACTG (sugars l3 d10 l3, PS), for which the calcium oscillation score was 43.4 % of control. The same measure for “AATACAAACAGCCTCCC (sugars l2 d12 l3, PS)”: 61.6 % of control; for “CACCTCCTGGTTTATGATGG (sugars l3 d14 l3, PS)”: 0 % of control; for “TAGACCACATTTCCATC (sugars l3 d11 l3, PS)”: 79.1 % of control. For “AACATCTAAACACCTCAA (sugars l4 d10 l4, PS)” the value was 78.9 % of control; for “CCAGTTACCATCATACA (sugars l2 d12 l3, PS)”, 91.8 % of control; for CTTCTATTACTTGCAAT (sugars l4 d9 l4, PS), 69 % of control. The same measure for “GCACCCTCCAAATCACCA (sugars l1 d15 l2, PS)”: 50.6 % of control; for “TAGACTATTTGCACACTGCC (sugars l3 d14 l3, PS)”: 51.9 % of control; for AGGCACAAGTCCTTA (sugars l3 d9 l3, PS): 107 % of control. Take “TACACCATCCAAGTCAATGC (sugars l3 d14 l3, PS)”: the calcium oscillation score was 6.04 % of control. For CATGATTGTGGGCTT (sugars l3 d9 l3, PS) the value was 0 % of control; for “TAGACTCCTTCTTTAGGCTT (sugars l3 d14 l3, PS)”, 45.2 % of control. In the case of TCTACCATGTCGATGC (sugars l3 d10 l3, PS), the calcium oscillation score was 51.8 % of control.

As to “TGGCCATCTTATGCTGACCA (sugars l3 d14 l3, PS)”, the calcium oscillation score was 29.4 % of control. For “TTCTCACCAAACCCAGA (sugars l3 d12 l2, PS)” the value was 57.8 % of control; for “GCTGGGTGGTGTCTTTGGAG (sugars l3 d14 l3, PS)”, 0 % of control; for “CTTAGCATCAGAGGTTTCAG (sugars l3 d14 l3, PS)”, 7.41 % of control. The same measure for TAGCAAACAGGATACA (sugars l3 d10 l3, PS): 49.8 % of control; for “AATTCATTTAATTCTCTTCT (sugars l4 d12 l4, PS)”: 86.6 % of control. For GCAATAGCAAACAGG (sugars l3 d9 l3, PS) the value was 40.8 % of control; for “GTCTTCCTGAAGGACACCTG (sugars l3 d14 l3, PS)”, 0 % of control. For the sequence “CCATTATCTCACTGCTT (sugars l3 d12 l2, PS)”, the calcium oscillation score is 29.3 % of control. Consider “CCTTTTCTACTCTACTCTCA (sugars l2 d16 l2, PS)”, for which the calcium oscillation score is 62.1 % of control. For “ATTTCCAAATTCACTTTTAC (sugars llldlddddddddddldlll, PS)” the value was 135 % of control; for CCCACATAAACTCCTT (sugars l3 d10 l3, PS), 53.4 % of control.

Turning to “ATTTAGTTTTCCCACCC (sugars l2 d13 l2, PS)”, the calcium oscillation score is 63.4 % of control. The same measure for GATCTTAGGCTGGCC (sugars l3 d9 l3, PS): 8.13 % of control; for CCCTAAAGTCCCAG (sugars l3 d8 l3, PS): 51.4 % of control.

With “CTTTCATCTACTTTTCAG (sugars l3 d12 l3, PS)”, the calcium oscillation score is 70.8 % of control. On to “CGTGGGTGATATTGTCCAGG (sugars l3 d14 l3, PS)”, for which the calcium oscillation score was 0 % of control. On to “AAAATACTCCTCCCTTA (sugars l3 d10 l4, PS)”, for which the calcium oscillation score is 67.1 % of control. With “CCTAATAAAAACAATACTA (sugars l4 d11 l4, PS)”, the calcium oscillation score is 62.3 % of control. Take TCAGCTAGCGTGGCGA (sugars l3 d10 l3, PS): the calcium oscillation score is 75.9 % of control. The same measure for “ATTTCCAAATTCACTTTTAC (sugars ldlllddddddddddlldll, PS)”: 143 % of control.
